Results taken from patent US12507703B2, “Methods, devices and compositions for preserving human milk” (The Trustees of Princeton University, priority 2023, dated 2025).
Several values for one entry are separate records, joined by “and”; a condition that tells them apart may be missing. Equal values may be shown once.

Test system: lipase
Test: Lipase/lipolysis assay (EnzChek Lipase Substrate, quenched BODIPY-fatty acid conjugate) on stored human milk; note: test concentration or dose not given here

| SMILES | Lipase (RFU) |
| --- | --- |
| NC(N)=O [Urea] | 934.3458 RFU and 864.3039 RFU |
| NC(=O)NCCC(=O)O [Ureidopropionic acid] | 1035.138 RFU |
| O=c1[nH]c(=O)c2[nH]c(=O)[nH]c2[nH]1.[Na] [Uric acid (sodium)] | 855.3809 RFU |
| O=C(O)/C=C/c1c[nH]cn1 [Urocanic acid] | 1101.226 RFU |
| C[C@H](CCC(=O)O)[C@H]1CC[C@H]2[C@@H]3[C@@H](O)C[C@@H]4C[C@H](O)CC[C@]4(C)[C@H]3C[C@H](O)[C@]12C [Ursocholic acid] | 879.9608 RFU |
| C=C(C)[C@@H]1CCC2=CCC[C@@H](C)[C@]2(C)C1 [Valencene] | 980.1668 RFU |
| COc1cc(CC(=O)C(=O)O)ccc1O [Vanilpyruvic acid] | 1086.418 RFU |
| NC(=O)CC[C@@H]1NC(=O)[C@H](Cc2ccccc2)NC(=O)[C@H](Cc2ccc(O)cc2)NC(=O)[C@@H](N)CSSC[C@@H](C(=O)N2CCC[C@H]2C(=O)N[C@@H](CCCN=C(N)N)C(=O)NCC(N)=O)NC(=O)[C@H](CC(N)=O)NC1=O [Vasopressin] | 1150.397 RFU |
| COc1ccc(C=O)cc1OC [Veratraldehyde] | 898.3756 RFU and 979.6116 RFU |
| COc1ccc(C(=O)O)cc1OC [Veratric acid] | 944.3491 RFU |
| COC(=O)C1=CO[C@@H](O[C@@H]2O[C@H](CO)[C@@H](O)[C@H](O)[C@H]2O)[C@H]2[C@@H]1C(=O)C[C@@H]2C [Verbenalin] | 1051.385 RFU |
| O=c1cc(-c2ccc(O)cc2)oc2c([C@@H]3O[C@H](CO)[C@@H](O)[C@H](O)[C@H]3O)c(O)c([C@@H]3O[C@H](CO)[C@@H](O)[C@H](O)[C@H]3O)c(O)c12 [Vicenin 2] | 893.9745 RFU |
| O=c1cc(-c2ccc(O)cc2)oc2c([C@@H]3OC[C@@H](O)[C@H](O)[C@H]3O)c(O)c([C@@H]3O[C@H](CO)[C@@H](O)[C@H](O)[C@H]3O)c(O)c12 [Vicenin 3] | 1057.755 RFU |
| O=c1cc(-c2ccc(O)cc2)oc2c([C@@H]3O[C@H](CO)[C@@H](O)[C@H](O)[C@H]3O)c(O)c([C@@H]3OC[C@@H](O)[C@H](O)[C@H]3O)c(O)c12 [Vicenin-1] | 1046.904 RFU |
| C[C@@H]1O[C@@H](O[C@@H]2[C@@H](O)[C@H](O)[C@@H](CO)O[C@H]2c2c(O)cc(O)c3c(=O)cc(-c4ccc(O)cc4)oc23)[C@H](O)[C@H](O)[C@H]1O [Vitexin-2″-O-rhamnoside] | 747.1181 RFU |
| CC1=C(C)C(=O)O[C@@H]([C@](C)(O)[C@H]2CC[C@H]3[C@@H]4[C@@H]5O[C@@H]5[C@@]5(O)CC=CC(=O)[C@]5(C)[C@H]4CC[C@]23C)C1 [Withanolide A] | 840.7696 RFU |
| O=c1ccc2cc3ccoc3c(O)c2o1 [Xanthotoxol] | 1117.591 RFU |
| O=C(O)c1cc(O)c2cccc(O)c2n1 [Xanthurenic acid] | 1023.37 RFU |
| OC1OC[C@@H](O[C@@H]2OC[C@@H](O)[C@H](O)[C@H]2O)[C@H](O)[C@H]1O (stereo partly drawn) [Xylobiose] | 862.1511 RFU |
| C[C@H]1CCCC(=O)CCC/C=C/c2cc(O)cc(O)c2C(=O)O1 [Zearalenone] | 758.7174 RFU |
| CC1=C(/C=C/C(C)=C/C=C/C(C)=C/C(=O)O)C(C)(C)CCC1=O [all-trans-4-Oxoretinoic acid] | 984.8749 RFU |
| C/C=C/c1cc(OC)c(OC)cc1OC [alpha-Asarone] | 956.156 RFU |
| COc1c(O)cc2oc3cc(O)c(CC=C(C)C)c(O)c3c(=O)c2c1CC=C(C)C [alpha-Mangostin] | 1061.941 RFU |
| CC(C)=CC(=O)C[C@H](C)c1ccc(C)cc1 [ar-Turmerone] | 1106.99 RFU |
| O=P(O)(O)OC(CO)CO [b-Glycerol Phosphate] | 984.3562 RFU |
| COc1cc2oc3cc(O)c(OC)c(CC=C(C)C)c3c(=O)c2c(O)c1CC=C(C)C [beta-Mangostin] | 828.6091 RFU |
| O=C(O)[C@@H]1C[C@H](O)CN1 [cis-4-Hydroxy-L-proline] | 944.0714 RFU |
